Reference: article PMC12196476, “New Nitrogen-, Oxygen-, and Sulfur-Containing Heterocyclic Compounds as Anti-Colon Cancer Agents: Synthesis, Multitargeted Evaluations, Molecular Docking Simulations and ADMET Predictions” (Pharmaceuticals, 2025)

What was measured:
[1] = DPPH radical scavenging assay; details: three independent experiments; read-out: Mean IC50 (mM) for initial DPPH radicals ± SD
Experimental: The antioxidant activities of the studied compounds were assessed using the 1,1-diphenyl-2-picrylhydrazyl (DPPH) radical scavenging method as detailed by Bersuder et al.. The results were expressed as IC50 (mM)—the concentration of the test compound required to neutralize 50% of DPPH radicals.
The antioxidant efficiencies of target compounds were determined using the 1,1-diphenyl-2-picrylhydrazyl (DPPH) radical scavenging method as detailed by Bersuder et al.. […]
S3.2. Evaluation of Biological Activities.
S3.2.1. In vitro DPPH radical scavenging assay.
The antioxidant efficiencies of compounds—3a−e, 8, 9a−c, 13, 14, 17, 18a−h, 20, 22, 23, and 25—were
determined using the 1,1-diphenyl-2-picrylhydrazyl (DPPH) radical scavenging method as
detailed by Bersuder et al.. Fundamentally, the purple color of the stabilized DPPH radical
fades in the presence of an antioxidant, thus, the change of absorbance can be followed
spectrophotometrically at 519 nm. In the assay, equal volumes (0.5 mL) of DPPH ethanolic solution
and each compound (0-2 mg/mL in DMSO) or butylated hydroxytoluene (BHT) as the reference
were mixed well by shaking. The negative control consisted of the same amount of DMSO and
DPPH solution. After, incubation all mixtures at room temperature in the dark for one hour, the
absorbance of the residual DPPH radicals was measured at 519 nm using the UV‐vis
spectrophotometer. The DPPH radical scavenging activity of each compound (%) was calculated
Scavenging activity = (1 − Acompound/AControl) * 100, where Acompound and Acontrol the absorbance values
of each tested compound (or BHT) and the negative control, respectively. The half maximal
inhibitory concentration (IC50) for each compound in mg/mL was deduced by graphing the dose-
response curve relating the scavenging activity (%) to the compound concentration. Data points
represent the mean ± standard deviation (SD) of three independent determinations.

[2] = system: LoVo colon carcinoma cells; experiment: Cell viability, LDH release assay, LoVo; details: for viability at 100 µg/mL / IC50: Homo sapiens, LoVo, 48 h; for viability at 100 µg/mL: read-out: Mean % of viable cells ± SD, LoVo, 100 µg/mL, 48 h, LDH release assay; for IC50: read-out: Mean IC50 Values in µM ± SD, LoVo cells
Experimental: (§1) The studied compounds were also screened for their cytotoxic effects on HCT-116 and LoVo colon carcinoma cells, as well as normal HUVECs, using the standard LDH assay at a concentration of 100 µg/mL.
(§2) The antiproliferative activities of the newly synthesized compounds 3a–e, 8, 9a–c, 13, 14, 17, 18a–h, 20, 22, 23 and 25 were examined on human colon HCT-116 and LoVo cell lines as well as HUVEC (American Type Culture Collection, Manassas, VA, USA). […]
(§3) S3.2.4. Cell culture and viability assay.
(§4) The cytotoxic activities of the newly synthesized compounds (3a-e, 8, 9a-c, 13, 14, 17, 18a-h, 20, 22,
(§5) 23, and 25) were examined on human colon cancer cell lines HCT-116 and Lovo (American Type
(§6) Culture Collection, USA). Various concentrations (50, 100, 200, and 400 μg/mL) of test compounds
(§7) were prepared in Dulbecco’s Modified Eagles Medium (PAN-Biotech, Barcelona, Spain),

[3] = biological target: recombinant human LDHA protein (Homo sapiens, UniProt P00338); experiment: In vitro LDHA inhibitory assay (NADH consumption); type: biochemical; details: for inhibition at 100 µg/mL: three replicates, read-out: Mean Inhibition Percent ± SD, LDHA
Description: The LDHA inhibitory efficiencies were investigated on Spectramax M2 spectrofluorometer via measuring the amounts of the consumed NADH^40 using an NAD^+/NADH quantification kit. […]
S3.2.3. In vitro LDHA inhibitory assay.
The LDHA inhibitory activity of the test compounds was investigated using Spectramax M2
spectrofluorometer by measuring the amounts of the consumed NADH [42] employing
NAD+/NADH quantification kit. Briefly, the assay medium containing various concentrations of
each test compound (50, 100, 200 and 300 μg/mL) was incubated in assay medium composed of 20
mM of HEPES-K+ buffer (pH 7.2), 20 μM of NADH, 2 mM of pyruvate and 10 ng of purified
recombinant human LDHA protein for 10 min utes. The activity of LDHA would result in reduction
of pyruvate into lactate with concomitant oxidation of NADH to NAD +. Since NADH (reduced
LDHA, could be inversely quantified by monitoring the change in the intensity of the fluorescence
at 340 nm over a 10-minute period. The rate of the fluorescence change (slope) in treated samples
was compared to that obtained from negative control experiment (100 % enzymatic activity) to
determine the percentage of inhibition. The IC50 value—defined as the compound concentration
required to reduce the luminescence by 50%, compared to untreated control wells—was
determined for each compound from the corresponding dose–response curve generated by
plotting LDHA inhibition (%) against compound concentration.
was used as the reference LDHA inhibitor. […]

[4] = Cell viability, LDH release assay, normal HUVECs; details: human, normal HUVECs, Mean % of viable cells ± SD, HUVEC
Experimental: as §1, §2
medium served used as negative and positive controls, respectively. Percentages of viable cells […]
were calculated based on relative optical density (OD) values (at 550 nm) for compound-treated […]
wells (final concentration of 100 μg/mL), compared to the negative control, and expressed as mean value (%) ± SD from two replicates. Graphing dose-response curves representing the compound […]
concentration versus the percentages of viable cells was also conducted to deduce the half - […]
Additionally, the safety profiles of the studied compounds were assessed against normal cells […]
(HUVECs) at final concentration of 100 μg/mL . HUVECs were grown in Dulbecco’s Modified Eagle’s Medium supplemented with 10% FBS, 2 mM glutamine (Sigma Aldrich), 100 units/mL penicillin and […] streptomycin (Life Technologies; Paisley, UK). […]

[5] = system: HCT-116 colon carcinoma cells; experiment: Cell viability, LDH release assay, HCT-116; details: for viability at 100 µg/mL / IC50: Homo sapiens, HCT-116, 48 h; for viability at 100 µg/mL: read-out: Mean % of viable cells ± SD, HCT-116, 100 µg/mL, 48 h, LDH release assay; for IC50: read-out: Mean IC50 Values in µM ± SD, HCT-116 cells
Experimental: as §1, §2, §3, §4, §5, §6, §7

PDK-1 = PDK-1 (Homo sapiens, UniProt Q15118); experiment: In vitro PDK-1 inhibition assay (Kinase-Glo luminescent kinase kit); type: biochemical; details: for inhibition at 100 µg/mL: three replicates, read-out: Mean Inhibition Percent ± SD, PDK-1
Sequence of PDK-1 (Q15118 29-436): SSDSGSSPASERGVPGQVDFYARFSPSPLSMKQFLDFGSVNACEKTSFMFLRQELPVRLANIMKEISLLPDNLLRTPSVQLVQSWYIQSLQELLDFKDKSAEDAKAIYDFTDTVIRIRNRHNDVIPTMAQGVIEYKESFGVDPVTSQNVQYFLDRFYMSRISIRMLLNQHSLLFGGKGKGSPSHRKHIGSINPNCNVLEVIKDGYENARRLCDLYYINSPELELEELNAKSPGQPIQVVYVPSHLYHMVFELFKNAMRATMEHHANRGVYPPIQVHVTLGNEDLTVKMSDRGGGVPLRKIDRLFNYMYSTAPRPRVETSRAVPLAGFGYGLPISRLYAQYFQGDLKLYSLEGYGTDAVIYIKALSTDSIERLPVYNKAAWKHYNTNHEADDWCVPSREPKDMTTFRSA
Experimental: Principally, the PDK-1 inhibitory activities were evaluated using the non-radioactive Kinase-Glo™ Luminescent Kinase Kit (Promega Corporation, Madison, WI, USA) following the instructions of the manufacturer.
S3.2.2. In vitro PDK-1 inhibition assay.
The PDK-1 inhibitory activities of the test compounds were evaluated using the non-radioactive
Kinase-Glo™ Luminescent Kinase kit (Promega Corporation, Madison, WI, USA), following the
manufacturer’s protocol. Briefly, 5 μL of assay buffer—containing 10 × 250 mM Tris-HCl, 50 mM
MgCl2, 5 mM ethyleneglycol-bis(β-aminoethylether)-N,N,N′,N′-tetraacetic acid (EGTA), 10 mM
ethylenedi- aminetetraacetic acid (EDTA), and 10 mM dithiothreitol (DTT)—was added to each
well of a 96-well plate, along with 25 μL of distilled water. Subsequently, 5 μL of each test
compound at various concentrations (50, 100, 200 and 300 μg/mL in 1% DMSO) was added to the
respective wells, except for the two control wells, which received 5 μL of either PBS buffer or 1%
DMSO. Then, 5 μL of pyruvate dehydrogenase E1 (PDH E1) protein (10 μM) and 5 μL of ATP
(10 μM) were added to each well. To initiate phosphorylation, 5 μL of PDK-1 (20 μM) in protein
buffer (1 mM MgCl2, 2000 mM KCl, 40 mM K3PO4) was added to all the wells except the control
wells, which received 5 μL of protein buffer instead. The plate was then mixed thoroughly and
incubated at 37 °C for 30 minutes. After incubation, 50 μL of kinase-Glo® reagent was added to each
well, followed by a 10-minute incubation at room temperature with gentle shaking to stabilize the
luminescent signal. Luminescence was then measured using a microplate reader.
The IC50 value—defined as the concentration of a compound required to reduce luminescence by
50%, compared to untreated control wells—was determined for each compound from the
corresponding dose–response curve generated by plotting PDK-1 inhibition (%) versus compound
concentration. Sodium dichloroacetate (SDA, 1000 μM) was used as a reference PDK-1inhibitor. […]

[6] = 0.1% Triton X-100 in assay medium

| Molecule | IC50 [1] | viability at 100 µg/mL [2] | inhibition at 100 µg/mL [3] | viability at 48 h, 100 µg/mL [4] | viability at 100 µg/mL [5] | inhibition at 100 µg/mL (PDK-1) | IC50 [2] | IC50 ([3]; three independent experiments, read-out: Mean IC50 µM ± SD, LDHA) | IC50 [5] | IC50 (PDK-1; three independent experiments, read-out: Mean IC50 µM ± SD, PDK-1) | inhibition at 1000 µM ([3]; SO at 1000 µM (111.03 µg/mL), read-out: Mean Inhibition Percent, LDHA (reference inhibitor)) | Mean % of viable cells, LoVo (positive control) [2, 6] | Mean % of viable cells, HCT-116 (positive control) [5, 6] |
| --- | --- | --- | --- | --- | --- | --- | --- | --- | --- | --- | --- | --- | --- |
| Cc1cc(C(C)(C)C)c(O)c(C(C)(C)C)c1 [BHT, butylated hydroxytoluene, reference compound] | 0.245 ± 0.027 mM | – | – | – | – | – | – | – | – | – | – | – | – |
| CCOC(=O)c1c(/N=C/c2cc(Br)c(O)c(OC)c2)sc2c1CCC(c1ccccc1)C2 (stereo not drawn) [Compound 3a, (E)-Ethyl2-((3-bromo-4-hydroxy-5-methoxybenzylidene)amino)-6-phenyl-4,5,6,7-tetrahydrobenzo[b]thiophene-3-carboxylate] | 0.214 ± 0.027 mM | 57.7 ± 1.53% | 25.8 ± 2.48% | 85 ± 1.73% | 60.7 ± 3.06% | 25.1 ± 3.04% | – | – | – | – | – | – | – |
| COc1cc(OC)c(/C=N/c2sc3c(c2C#N)CCCC3)c(OC)c1 [Compound 3b, (E)-2-((2,4,6-Trimethoxybenzylidene)amino)-4,5,6,7-tetrahydrobenzo[b]thiophene-3-carbonitrile] | 0.522 ± 0.025 mM | < 29% | 82.8 ± 3.18% | ~90% | < 29% | 94.7 ± 2.33% | 190 µM | 167 ± 10.1 µM | 170 µM | 147 ± 5.95 µM | – | – | – |
| COc1cc(/C=N/c2ncnc3sc4c(c23)CCCC4)cc(Br)c1O [Compound 3c, (E)-2-Bromo-6-methoxy-4-(((5,6,7,8-tetrahydrobenzo[4,5]thieno[2,3-d]pyrimidin-4-yl)imino)methyl)phenol] | 0.476 ± 0.038 mM | 95.7 ± 1.53% | 40 ± 1.41% | 93 ± 2.65% | 89.3 ± 4.16% | 7.6 ± 0.85% | – | – | – | – | – | – | – |
| Oc1ccc2ccccc2c1/C=N/c1ncnc2sc3c(c12)CCCC3 [Compound 3e, (E)-1-(((5,6,7,8-Tetrahydrobenzo[4,5]thieno[2,3-d]pyrimidin-4-yl)imino)methyl) naphthalene-2-ol] | 0.89 ± 0.039 mM | 62.3 ± 2.52% | 28.3 ± 1.84% | 96.7 ± 1.16% | 57 ± 1.73% | 31.2 ± 3.18% | – | – | – | – | – | – | – |
| O=c1[nH]cc(F)c(=O)[nH]1 [Compound 5-FU, 5-Fluorouracil, reference compound] | – | – | – | – | – | – | 20 ± 3.21 µM | – | 27 ± 1.87 µM | – | – | – | – |
| CCOC(=O)c1sc(N2C(=O)CSCC2=O)nc1C [Compound 8, Ethyl 2-(3,5-Dioxothiomorpholino)-4-methylthiazole-5-carboxylate] | 1.52 ± 0.07 mM | 13.5 ± 0.71% | 23.2 ± 1.06% | 84.6 ± 2.54% | 26.5 ± 2.12% | 16.6 ± 2.19% | 320 ± 7.44 µM | – | 410 ± 13.5 µM | – | – | – | – |
| CCOC(=O)c1sc(/N=C/c2cc(Br)c(O)c(OC)c2)nc1C [Compound 9a, Ethyl (E)-2-((3-bromo-4-hydroxy-5-methoxybenzylidene)amino)-4-methyl thiazole-5-carboxylate] | 1.55 ± 0.035 mM | 65.3 ± 3.54% | 40.5 ± 2.19% | 70.3 ± 1.53% | 72 ± 2.65% | 26.9 ± 2.62% | – | – | – | – | – | – | – |
| CCOC(=O)c1sc(/N=C/c2cc(OC)c(OC)c(OC)c2)nc1C [Compound 9b, Ethyl(E)-4-methyl-2-((3,4,5-trimethoxybenzylidene)amino)thiazole-5-carboxylate] | 1.81 ± 0.115 mM | 60.3 ± 2.83% | 33.4 ± 1.98% | 81.7 ± 2.52% | 54 ± 4.58% | 30.1 ± 1.56% | – | – | – | – | – | – | – |
| NC(=O)C(=O)O [SO, sodium oxamate, reference compound] | – | – | – | – | – | – | – | – | – | – | 100% | – | – |
| Triton X-100 [reference compound] | – | – | – | – | – | – | – | – | – | – | – | 0% | 0% |
